Results: patent US11731986B2 (Sanford Burnham Prebys Medical Discovery Institute, priority 2017, dated 2023)

Molecular target: T1, human LMPTP-A (Homo sapiens, UniProt P24666)
T1 sequence (P24666 1-158): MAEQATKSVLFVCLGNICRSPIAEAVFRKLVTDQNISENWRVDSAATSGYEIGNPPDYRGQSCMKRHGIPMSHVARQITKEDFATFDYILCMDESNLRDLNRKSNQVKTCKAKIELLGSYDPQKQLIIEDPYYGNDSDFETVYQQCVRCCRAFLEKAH
Assay: Enzyme Assay of Inhibition of LMPTP-A (phosphatase assay, OMFP or pNPP substrate)
Assay type: biochemical
Settings: Bis-Tris pH 6.0, 37° C.
Procedure, shortened: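 Buffer 50 mM Bis-Tris pH 6.0, 1 mM DTT, 0.01% Triton X-100, 37 °C; OMFP read continuously (485/525 nm) or pNPP stopped with NaOH, 405 nm. IC50 from concentration vs % activity. Selectivity: 40 μM compound with 0.4 mM OMFP or 5 mM pNPP; reversibility: 50 nM enzyme, 10 μM compound, 5 min, 100× dilution.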

IC50	Compound
1000 to 20000 nM	CCN(CC)C(=O)c1ccc(-c2cc(Nc3ccc(NCCOC)cc3)c3cnccc3n2)cc1 [N,N-Diethyl-4-(4-(4-(2-methoxyethylamino)phenylamino)-1,6-naphthyridin-2-yl)benzamide]
1000 to 20000 nM	CCN(CC)C(=O)c1ccc(-c2cc(Nc3ccc(OC)cc3)c3cnccc3n2)cc1 [N,N-Diethyl-4-(4-(4-methoxyphenylamino)-1,6-naphthyridin-2-yl)benzamide]
1000 to 20000 nM	CCN(CC)C(=O)c1ccc(-c2cc(NC3CCN(C)CC3)c3cnccc3n2)cc1 [N,N-Diethyl-4-(4-((1-methylpiperidin-4-yl)amino)-1,6-naphthyridin-2-yl)benzamide]
1000 to 20000 nM	CCN(CC)C(=O)c1ccc(-c2cc(NCCN3CCCCC3)c3cnccc3n2)cc1 [N,N-Diethyl-4-(4-((2-(piperidin-1-yl)ethyl)amino)-1,6-naphthyridin-2-yl)benzamide]
1000 to 20000 nM	CCN(CC)C(=O)c1ccc(-c2cc(NCCCN3CCN(S(C)(=O)=O)CC3)c3cnccc3n2)cc1 [N,N-Diethyl-4-(4-((3-(4-(methylsulfonyl)piperazin-1-yl)propyl)amino)-1,6-naphthyridin-2-yl)benzamide]
1000 to 20000 nM	CCN(CC)C(=O)c1ccc(-c2cc(NCCCN3CCNCC3)c3cnccc3n2)cc1 [N,N-Diethyl-4-(4-((3-(piperazin-1-yl)propyl)amino)-1,6-naphthyridin-2-yl)benzamide]
1000 to 20000 nM	CCN(CC)C(=O)c1ccc(-c2cc(NCCCN3CCOCC3)c3cnccc3n2)cc1 [N,N-Diethyl-4-(4-((3-morpholinopropyl)amino)-1,6-naphthyridin-2-yl)benzamide]
1000 to 20000 nM	CCN(CC)C(=O)c1ccc(-c2cc(NC3CCNCC3)c3cnccc3n2)cc1 [N,N-Diethyl-4-(4-(piperidin-4-ylamino)-1,6-naphthyridin-2-yl)benzamide]
≥ 20000 nM	CCN(CC)C(=O)c1ccc(-c2cc(NCCCN3CCCCC3)c3cncc(C)c3n2)cc1 [N,N-Diethyl-4-(8-methyl-4-((3-(piperidin-1-yl)propyl)amino)-1,6-naphthyridin-2-yl)benzamide]
1000 to 20000 nM	CCN(CC)C(=O)c1nc2ccc(-c3cc(NCCCN4CCCCC4)c4cnccc4n3)cc2o1 [N,N-Diethyl-6-(4-(3-(piperidin-1-yl)propylamino)-1,6-naphthyridin-2-yl)benzo[d]oxazole-2-carboxamide]
1000 to 20000 nM	CCN(CC)C(=O)c1nc2ccc(-c3cc(NCCCN4CCCCC4)c4cnccc4n3)cc2s1 [N,N-Diethyl-6-(4-(3-(piperidin-1-yl)propylamino)-1,6-naphthyridin-2-yl)benzo[d]thiazole-2-carboxamide]
1000 to 20000 nM	CCN(CC)C(=O)COCc1ccc(-c2cc(NCCCN3CCCCC3)c3cnccc3n2)cc1 [N,N-diethyl-2-((4-(4-((3-(piperidin-1-yl)propyl)amino)-1,6-naphthyridin-2-yl)benzyl)oxy)acetamide]
≥ 20000 nM	CCN(CC)C(=O)CCOc1ccc(-c2cc(NCCCN3CCCCC3)c3cnccc3n2)cc1 [N,N-diethyl-3-(4-(4-((3-(piperidin-1-yl)propyl)amino)-1,6-naphthyridin-2-yl)phenoxy)propanamide]
≥ 20000 nM	CCN(CC)C(=O)c1ccc(-c2cc(NCCCN3CCCCC3)nc3ncccc23)cc1 [N,N-diethyl-4-(2-(3-(piperidin-1-yl)propylamino)-1,8-naphthyridin-4-yl)benzamide]
1000 to 20000 nM	CCN(CC)C(=O)c1ccc(-c2cc(NCCN3CCN(S(C)(=O)=O)CC3)c3cnccc3n2)cc1 [N,N-diethyl-4-(4-(2-(4-(methylsulfonyl)piperazin-1-yl)ethylamino)-1,6-naphthyridin-2-yl)benzamide]
1000 to 20000 nM	CCN(CC)C(=O)c1ccc(-c2cc(NCCN3CCN(C)CC3)c3cnccc3n2)cc1 [N,N-diethyl-4-(4-(2-(4-methylpiperazin-1-yl)ethylamino)-1,6-naphthyridin-2-yl)benzamide]
1000 to 20000 nM	CCN(CC)C(=O)c1ccc(-c2cc(NCCN3CCNCC3)c3cnccc3n2)cc1 [N,N-diethyl-4-(4-(2-(piperazin-1-yl)ethylamino)-1,6-naphthyridin-2-yl)benzamide]
1000 to 20000 nM	CCN(CC)C(=O)c1ccc(-c2cc(NCCN3CCOCC3)c3cnccc3n2)cc1 [N,N-diethyl-4-(4-(2-morpholinoethylamino)-1,6-naphthyridin-2-yl)benzamide]
1000 to 20000 nM	CCN(CC)C(=O)c1ccc(-c2cc(NCCCN3CCN(C)CC3)c3cnccc3n2)cc1 [N,N-diethyl-4-(4-(3-(4-methylpiperazin-1-yl)propylamino)-1,6-naphthyridin-2-yl)benzamide]
≥ 20000 nM	CCN(CC)C(=O)c1ccc(-c2cc(NCCCN3CCCCC3)c3ncccc3n2)cc1 [N,N-diethyl-4-(4-(3-(piperidin-1-yl)propylamino)-1,5-naphthyridin-2-yl)benzamide]

IC50	Compound
≤ 1000 nM	CCN(CC)C(=O)c1ccc(-c2cc(NCCCN3CCCCC3)c3cnccc3n2)cc1 [N,N-diethyl-4-(4-(3-(piperidin-1-yl)propylamino)-1,6-naphthyridin-2-yl)benzamide]
≥ 20000 nM	CCN(CC)C(=O)c1ccc(-c2cc(NCCCN3CCCCC3)c3ccncc3n2)cc1 [N,N-diethyl-4-(4-(3-(piperidin-1-yl)propylamino)-1,7-naphthyridin-2-yl)benzamide]
≥ 20000 nM	CCN(CC)C(=O)c1ccc(-c2cc(NCCCN3CCCCC3)c3cccnc3n2)cc1 [N,N-diethyl-4-(4-(3-(piperidin-1-yl)propylamino)-1,8-naphthyridin-2-yl)benzamide]
≤ 1000 nM	CCN(CC)C(=O)c1ccc(-c2cc(NCCCN3CCCCC3)c3cnccc3n2)c(C(F)(F)F)c1 [N,N-diethyl-4-(4-((3-(piperidin-1-yl)propyl)amino)-1,6-naphthyridin-2-yl)-3-(trifluoromethyl)benzamide]
1000 to 20000 nM	CCN(CC)C(=O)c1ccc(-c2cc(NC3CCNC3)c3cnccc3n2)cc1 (stereo not drawn) [N,N-diethyl-4-(4-(pyrrolidin-3-ylamino)-1,6-naphthyridin-2-yl)benzamide]
1000 to 20000 nM	CCN(CC)C(=O)c1ccc(-c2cc(NC3CCOCC3)c3cnccc3n2)cc1 [N,N-diethyl-4-(4-(tetrahydro-2H-pyran-4-ylamino)-1,6-naphthyridin-2-yl)benzamide]
1000 to 20000 nM	CCN(CC)C(=O)c1nc2cc(-c3cc(NCCCN4CCCCC4)c4cnccc4n3)ccc2[nH]1 [N,N-diethyl-5-(4-((3-(piperidin-1-yl)propyl)amino)-1,6-naphthyridin-2-yl)-1H-benzo[d]imidazole-2-carboxamide]
≤ 1000 nM	CCN(CC)C(=O)c1cc2ccc(-c3cc(NCCCN4CCCCC4)c4cnccc4n3)cc2s1 [N,N-diethyl-6-(4-(3-(piperidin-1-yl)propylamino)-1,6-naphthyridin-2-yl)benzo[b]thiophene-2-carboxamide]
≤ 1000 nM	Cn1c(C(=O)NC2CCS(=O)(=O)CC2)cc2cc(-c3cc(NCCCN4CCCCC4)c4cnccc4n3)ccc21 [N-(1,1-dioxidotetrahydro-2H-thiopyran-4-yl)-1-methyl-5-(4-((3-(piperidin-1-yl)propyl)amino)-1,6-naphthyridin-2-yl)-1H-indole-2-carboxamide]
≤ 1000 nM	CN1CCC(NC(=O)CCc2ccc(-c3cc(NC4CCN(C)CC4)c4cnccc4n3)cc2)CC1 [N-(1-Methylpiperidin-4-yl)-3-(4-(4-(1-methylpiperidin-4-ylamino)-1,6-naphthyridin-2-yl)phenyl)propanamide]
≤ 1000 nM	CN1CCC(NC(=O)CCOCc2ccc(-c3cc(NCCCN4CCCCC4)c4cnccc4n3)cc2)CC1 [N-(1-Methylpiperidin-4-yl)-3-(4-(4-(3-(piperidin-1-yl)propylamino)-1,6-naphthyridin-2-yl)benzyloxy)propanamide]
1000 to 20000 nM	CN1CCC(NC(=O)c2ccc(-c3cc(NC4CCN(C)CC4)c4cnccc4n3)cc2)CC1 [N-(1-Methylpiperidin-4-yl)-4-(4-((1-methylpiperidin-4-yl)amino)-1,6-naphthyridin-2-yl)benzamide]
1000 to 20000 nM	CN1CCC(NC(=O)c2ccc(-c3cc(NC4CCN(C)C4)c4cnccc4n3)cc2)CC1 (stereo not drawn) [N-(1-Methylpiperidin-4-yl)-4-(4-((1-methylpyrrolidin-3-yl)amino)-1,6-naphthyridin-2-yl)benzamide]
≤ 1000 nM	CN1CCC(NC(=O)c2ccc(-c3cc(NC4CCOCC4)c4cnccc4n3)cc2)CC1 [N-(1-Methylpiperidin-4-yl)-4-(4-((tetrahydro-2H-pyran-4-yl)amino)-1,6-naphthyridin-2-yl)benzamide]
1000 to 20000 nM	CN1CCC(NC(=O)c2ccc(-c3cc(NC4CCNCC4)c4cnccc4n3)cc2)CC1 [N-(1-Methylpiperidin-4-yl)-4-(4-(piperidin-4-ylamino)-1,6-naphthyridin-2-yl)benzamide]
1000 to 20000 nM	CN1CCC(NC(=O)c2ccc(-c3cc(NC4CCNC4)c4cnccc4n3)cc2)CC1 (stereo not drawn) [N-(1-Methylpiperidin-4-yl)-4-(4-(pyrrolidin-3-ylamino)-1,6-naphthyridin-2-yl)benzamide]
1000 to 20000 nM	CN1CCC(NC(=O)c2cc3ccc(-c4cc(NCCCN5CCCCC5)c5cnccc5n4)cc3[nH]2)CC1 [N-(1-Methylpiperidin-4-yl)-6-(4-(3-(piperidin-1-yl)propylamino)-1,6-naphthyridin-2-yl)-1H-indole-2-carboxamide]
≤ 1000 nM	CN1CCC(NC(=O)c2nc3cc(-c4cc(NCCCN5CCCCC5)c5cnccc5n4)cnc3[nH]2)CC1 [N-(1-Methylpiperidin-4-yl)-6-(4-(3-(piperidin-1-yl)propylamino)-1,6-naphthyridin-2-yl)-3H-imidazo[4,5-b]pyridine-2-carboxamide]
≤ 1000 nM	CCN1CCC(NC(=O)c2cc3ccc(-c4cc(NCCCN5CCCCC5)c5cnccc5n4)cc3s2)CC1 [N-(1-ethylpiperidin-4-yl)-6-(4-(3-(piperidin-1-yl)propylamino)-1,6-naphthyridin-2-yl)benzo[b]thiophene-2-carboxamide]
